Target: T1, human MC5R (hMC5R) (Homo sapiens, UniProt P33032)
T1 construct: purchased Perkin Elmer RBXMC5M400UA
Test: Human MC5R radioligand binding assay (membranes, [125I] NDP-MSH displacement)
Settings: hMC5R binding; tested as trifluoroacetate or hydrochloride salts, or free bases; read-out: MC5R radioligand IC50
Description: Assessments of compound binding to human MC5R (hMC5R) ) by displacement of an ^125I-labeled NDP-MSH receptor ligand peptide were performed essentially as described in the data sheets produced by Perkin Elmer to accompany their frozen hMC5R membranes (Perkin Elmer catalog number RBXMC5M400UA).
[^125I] NDP-MSH: radiolabeled in house and purified by HPLC:
• Na^125I (0.5 mCi, 17.4 Ci/mg) was added to 50 μL sodium phosphate (50 mM, pH7.4) in an eppendorf tube precoated with IODOGEN. After incubation for 10 mins the phosphate buffer containing the iodine was added to NDP-MSH (10 ul at 1 mg/mL) in a separate eppendorf tube. This was incubated for a further 10 mins. The iodinated NDP-MSH was purified by HPLC on a Zorbax SB 300 column using solvent A: 0.05% TFA and solvent B: 90% acetonitrile 0.045% TFA with a linear gradient, 0-67% B over 60 mins. […] Resuspended membranes were kept on ice until they were added to the wells of the plate. Binding Protocol for 400 microassays per vial: • Assays were performed in 96 well polypropylene plates. […] This was incubated for 1 hr at 37° C.

T1 sequence (P33032 whole entry): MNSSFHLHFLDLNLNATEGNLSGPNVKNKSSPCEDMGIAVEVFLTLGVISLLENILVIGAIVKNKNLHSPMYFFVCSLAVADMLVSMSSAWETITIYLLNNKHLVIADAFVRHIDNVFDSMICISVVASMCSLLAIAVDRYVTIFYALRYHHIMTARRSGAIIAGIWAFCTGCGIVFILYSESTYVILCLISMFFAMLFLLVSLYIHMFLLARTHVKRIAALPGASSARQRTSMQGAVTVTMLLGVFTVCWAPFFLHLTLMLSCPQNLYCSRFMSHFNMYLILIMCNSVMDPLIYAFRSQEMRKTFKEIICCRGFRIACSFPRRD

Compound | IC50 [nM]
NCCC[C@@H]1N[C@H](CNC(=O)COc2ccc(F)cc2)CCN(CC(c2ccccc2)c2ccccc2)C1=O [Compound 233, N-(((3S,5S)-3-(3-aminopropyl)-1-(2,2-diphenylethyl)-2-oxo-1,4-diazepan-5-yl)methyl)-2-(4-fluorophenoxy)acetamide] | < 1000
Cc1c(C(=O)NC[C@@H]2CCN(CC(c3ccccc3)c3ccccc3)C(=O)[C@H](CCCN)N2)cnn1-c1ccccc1 [Compound 241, N-(((3S,5S)-3-(3-aminopropyl)-1-(2,2-diphenylethyl)-2-oxo-1,4-diazepan-5-yl)methyl)-5-methyl-1-phenyl-1H-pyrazole-4-carboxamide] | < 10000
N=C(N)NCCC[C@@H]1N[C@H](CNC(=O)c2ccc3ccccc3c2)CCN(CCC2CCCCC2)C1=O [Compound 242, N-(((3S,5S)-1-(2-cyclohexylethyl)-3-(3-guanidinopropyl)-2-oxo-1,4-diazepan-5-yl)methyl)-2-naphthamide] | < 1000
N=C(N)NCCC[C@@H]1N[C@H](CNC(=O)c2ccc3ccccc3c2)CCN(CCC2CC3CCC2C3)C1=O (stereo partly drawn) [Compound 243, N-(((3S,5S)-1-(2-(bicyclo[2.2.1]heptan-2-yl)ethyl)-3-(3-guanidinopropyl)-2-oxo-1,4-diazepan-5-yl)methyl)-2-naphthamide] | < 1000
COc1ccc(C(CN2CC[C@@H](CNC(=O)c3ccc4ccccc4c3)N[C@@H](CCCNC(=N)N)C2=O)c2ccc(OC)cc2)cc1 [Compound 244, N-(((3S,5S)-1-(2,2-bis(4-methoxyphenyl)ethyl)-3-(3-guanidinopropyl)-2-oxo-1,4-diazepan-5-yl)methyl)-2-naphthamide] | < 10000
O=C(NC[C@@H]1CCN(CC(c2ccccc2)c2ccccc2)C(=O)[C@H](CCCNCc2ccccc2)N1)c1ccc2ccccc2c1 [Compound 245, N-(((3S,5S)-3-(3-(benzylamino)propyl)-1-(2,2-diphenylethyl)-2-oxo-1,4-diazepan-5-yl)methyl)-2-naphthamide] | < 100
O=C(NC[C@@H]1CCN(CC(c2ccccc2)c2ccccc2)C(=O)[C@H](CCCNC2CCCC2)N1)c1ccc2ccccc2c1 [Compound 246, N-(((3S,5S)-3-(3-(cyclopentylamino)propyl)-1-(2,2-diphenylethyl)-2-oxo-1,4-diazepan-5-yl)methyl)-2-naphthamide] | < 100
O=C(NC[C@@H]1CCN(CC(c2ccccc2)c2ccccc2)C(=O)[C@H](CCCNC2CCC2)N1)c1ccc2ccccc2c1 [Compound 247, N-(((3S,5S)-3-(3-(cyclobutylamino)propyl)-1-(2,2-diphenylethyl)-2-oxo-1,4-diazepan-5-yl)methyl)-2-naphthamide] | < 100
N=C(N)NCCC[C@@H]1N[C@H](CNC(=O)c2ccc3ccccc3c2)CCN(Cc2ccccc2)C1=O [Compound 249, N-(((3S,5S)-1-benzyl-3-(3-guanidinopropyl)-2-oxo-1,4-diazepan-5-yl)methyl)-2-naphthamide] | < 10000
N=C(N)NCCC[C@@H]1N[C@H](CNC(=O)c2ccc3ccccc3c2)CCN(CC(c2ccc(F)cc2)c2ccc(F)cc2)C1=O [Compound 250, N-(((3S,5S)-1-(2,2-bis(4-fluorophenyl)ethyl)-3-(3-guanidinopropyl)-2-oxo-1,4-diazepan-5-yl)methyl)-2-naphthamide] | < 100
N=C(N)NCCC[C@@H]1N[C@H](CNC(=O)c2ccc3ccccc3c2)CCN(Cc2ccc3ccccc3c2)C1=O [Compound 251, N-(((3S,5S)-3-(3-guanidinopropyl)-1-(naphthalen-2-ylmethyl)-2-oxo-1,4-diazepan-5-yl)methyl)-2-naphthamide] | < 10000
O=C(/C=C/c1ccc(Cl)cc1)NC[C@@H]1CCN(CC(c2ccccc2)c2ccccc2)C(=O)[C@H](CCCN2CCCC2)N1 [Compound 258, (E)-3-(4-chlorophenyl)-N-(((3S,5S)-1-(2,2-diphenylethyl)-2-oxo-3-(3-(pyrrolidin-1-yl)propyl)-1,4-diazepan-5-yl)methyl)acrylamide] | < 100
NCC[C@@H]1N[C@H](CNC(=O)c2ccc3ccccc3c2)CCN(CC(c2ccccc2)c2ccccc2)C1=O [Compound 260, N-(((3S,5S)-3-(2-aminoethyl)-1-(2,2-diphenylethyl)-2-oxo-1,4-diazepan-5-yl)methyl)-2-naphthamide] | < 1000
O=C(NC[C@@H]1CCN(CC(c2ccccc2)c2ccccc2)C(=O)[C@H](CCCN2CCCC2)N1)c1ccc2ccccc2c1 [Compound 261, N-(((3S,5S)-1-(2,2-diphenylethyl)-2-oxo-3-(3-(pyrrolidin-1-yl)propyl)-1,4-diazepan-5-yl)methyl)-2-naphthamide] | < 100
O=C(NC[C@@H]1CCN(CC(c2ccccc2)c2ccccc2)C(=O)[C@H](CCCN2CCC2)N1)c1ccc2ccccc2c1 [Compound 262, N-(((3S,5S)-3-(3-(azetidin-1-yl)propyl)-1-(2,2-diphenylethyl)-2-oxo-1,4-diazepan-5-yl)methyl)-2-naphthamide] | < 100
N=C(N)NCCC[C@@H]1N[C@H](CNC(=O)c2ccc3ccccc3c2)CCN(Cc2cccc3ccccc23)C1=O [Compound 263, N-(((3S,5S)-3-(3-guanidinopropyl)-1-(naphthalen-1-ylmethyl)-2-oxo-1,4-diazepan-5-yl)methyl)-2-naphthamide] | < 10000
N=C(N)NCCC[C@@H]1N[C@H](CNC(=O)c2ccc3ccccc3c2)CCN(CCc2ccc3ccccc3c2)C1=O [Compound 264, N-(((3S,5S)-3-(3-guanidinopropyl)-1-(2-(naphthalen-2-yl)ethyl)-2-oxo-1,4-diazepan-5-yl)methyl)-2-naphthamide] | < 10000
CC(=O)N[C@H](CN1CC[C@@H](CNC(=O)c2ccc3ccccc3c2)N[C@@H](CCCNC(=N)N)C1=O)c1ccccc1 [Compound 265, N-(((3S,5S)-1-((S)-2-acetamido-2-phenylethyl)-3-(3-guanidinopropyl)-2-oxo-1,4-diazepan-5-yl)methyl)-2-naphthamide] | < 10000
O=C(C=Cc1ccccc1)NC[C@@H]1CCN(CC(c2ccccc2)c2ccccc2)C(=O)[C@H](CCCN2CCCCC2)N1 [Compound 266, N-(((3S,5S)-1-(2,2-diphenylethyl)-2-oxo-3-(3-(piperidin-1-yl)propyl)-1,4-diazepan-5-yl)methyl)cinnamamide] | < 100
N=C(N)NCCC[C@@H]1N[C@H](CNC(=O)c2ccc3ccccc3c2)CCN(C[C@@H](NC(=O)C2CCC2)c2ccccc2)C1=O [Compound 269, N-(((3S,5S)-1-((S)-2-(cyclobutanecarboxamido)-2-phenylethyl)-3-(3-guanidinopropyl)-2-oxo-1,4-diazepan-5-yl)methyl)-2-naphthamide] | < 1000
N=C(N)NCCC[C@@H]1N[C@H](CNC(=O)c2ccc3ccccc3c2)CCN(C[C@@H](NC(=O)C2CCCCC2)c2ccccc2)C1=O [Compound 270, N-(((3S,5S)-1-((S)-2-(cyclohexanecarboxamido)-2-phenylethyl)-3-(3-guanidinopropyl)-2-oxo-1,4-diazepan-5-yl)methyl)-2-naphthamide] | < 10000
NC[C@@H]1N[C@H](CNC(=O)c2ccc3ccccc3c2)CCN(CC(c2ccccc2)c2ccccc2)C1=O [Compound 271, N-(((3S,5S)-3-(aminomethyl)-1-(2,2-diphenylethyl)-2-oxo-1,4-diazepan-5-yl)methyl)-2-naphthamide] | < 1000
O=C(NC[C@@H]1CCN(CC(c2ccccc2)c2ccccc2)C(=O)[C@H](CN2CCCCC2)N1)c1ccc2ccccc2c1 [Compound 275, N-(((3S,5S)-1-(2,2-diphenylethyl)-2-oxo-3-(piperidin-1-ylmethyl)-1,4-diazepan-5-yl)methyl)-2-naphthamide] | < 100
NCC[C@@H]1N[C@H](CNC(=O)C=Cc2ccccc2)CCN(CC(c2ccccc2)c2ccccc2)C1=O [Compound 279, N-(((3S,5S)-3-(2-aminoethyl)-1-(2,2-diphenylethyl)-2-oxo-1,4-diazepan-5-yl)methyl)cinnamamide] | < 1000
O=C(C=Cc1ccccc1)NC[C@@H]1CCN(CC(c2ccccc2)c2ccccc2)C(=O)[C@H](CCN2CCCCC2)N1 [Compound 283, N-(((3S,5S)-1-(2,2-diphenylethyl)-2-oxo-3-(2-(piperidin-1-yl)ethyl)-1,4-diazepan-5-yl)methyl)cinnamamide] | < 100
O=C(/C=C/c1ccc(F)cc1)NC[C@@H]1CCN(CC(c2ccccc2)c2ccccc2)C(=O)[C@H](CCN2CCCCC2)N1 [Compound 284, (E)-N-(((3S,5S)-1-(2,2-diphenylethyl)-2-oxo-3-(2-(piperidin-1-yl)ethyl)-1,4-diazepan-5-yl)methyl)-3-(4-fluorophenyl)acrylamide] | < 10
Cc1ccc(/C=C/C(=O)NC[C@@H]2CCN(CC(c3ccccc3)c3ccccc3)C(=O)[C@H](CCN3CCCCC3)N2)cc1 [Compound 285, (E)-N-(((3S,5S)-1-(2,2-diphenylethyl)-2-oxo-3-(2-(piperidin-1-yl)ethyl)-1,4-diazepan-5-yl)methyl)-3-p-tolylacrylamide] | < 100
Cc1cc(C)cc(CN2CC[C@@H](CNC(=O)c3ccc4ccccc4c3)N[C@@H](CCCNC(=N)N)C2=O)c1 [Compound 286, N-(((3S,5S)-1-(3,5-dimethylbenzyl)-3-(3-guanidinopropyl)-2-oxo-1,4-diazepan-5-yl)methyl)-2-naphthamide] | < 1000

— patent publication US8008291B2 (Mimetica Pty Ltd, priority 2008, dated 2011)
